Measured values: the SangsterLogP compilation

Test: method code SF-HPLC, from DOI: 10.1002/ps.2780400103

SMILES	logP
CCCc1ccc(OCC(OC(=S)n2ccnc2)C(C)(C)C)cc1 (configuration not stated)	5.77
CCOc1ccc(OCC(OC(=S)n2ccnc2)C(C)(C)C)cc1 (configuration not stated)	4.58
CCc1ccc(OCC(OC(=S)n2ccnc2)C(C)(C)C)cc1 (configuration not stated)	5.09
CCOC(=O)c1ccc(OCC(OC(=O)n2ccnc2)C(C)(C)C)cc1 (configuration not stated)	4.12
CCCCCc1ccc(OCC(OC(=O)n2ccnc2)C(C)(C)C)cc1 (configuration not stated)	5.26
COC(=O)c1ccc(OCC(OC(=S)n2ccnc2)C(C)(C)C)cc1 (configuration not stated)	4.77
Cc1ccc(OCC(OC(=S)n2ccnc2)C(C)(C)C)cc1 (configuration not stated)	4.66
CCCOc1ccc(OCC(OC(=S)n2ccnc2)C(C)(C)C)cc1 (configuration not stated)	5.03
CC(C)c1ccc(OCC(OC(=S)n2ccnc2)C(C)(C)C)cc1 (configuration not stated)	5.21
CC(C)(C)C(COc1ccccc1)OC(=S)n1ccnc1 (configuration not stated)	4.27
COc1ccc(OCC(OC(=S)n2ccnc2)C(C)(C)C)cc1 (configuration not stated)	4.31
CCCCOc1ccc(OCC(OC(=O)n2ccnc2)C(C)(C)C)cc1 (configuration not stated)	4.29
CC(C)(C)C(COc1ccc(-c2ccccc2)cc1)OC(=S)n1ccnc1 (configuration not stated)	6.06
CC(C)(C)C(COc1ccc(-c2ccccc2)cc1)OC(=O)n1ccnc1 (configuration not stated)	4.56
CC(C)(C)C(COc1ccc(Br)cc1)OC(=S)n1ccnc1 (configuration not stated)	5.11
CC(C)(C)C(COc1ccc(Cl)cc1)OC(=S)n1ccnc1 (configuration not stated)	4.96

Now from value to compound:

logP	SMILES
4.77	CC(C)c1ccc(OCC(OC(=O)n2ccnc2)C(C)(C)C)cc1 (configuration not stated)
3.46	COc1ccc(OCC(OC(=O)n2ccnc2)C(C)(C)C)cc1 (configuration not stated)
3.59	COC(=O)c1ccc(OCC(OC(=O)n2ccnc2)C(C)(C)C)cc1 (configuration not stated)
4.82	CC(C)(C)c1ccc(OCC(OC(=O)n2ccnc2)C(C)(C)C)cc1 (configuration not stated)
3.58	CC(C)(C)C(COc1ccccc1)OC(=O)n1ccnc1 (configuration not stated)
4.97	CCCCc1ccc(OCC(OC(=O)n2ccnc2)C(C)(C)C)cc1 (configuration not stated)
3.35	CC(C)(C)C(COc1ccc([N+](=O)[O-])cc1)OC(=O)n1ccnc1 (configuration not stated)
4.15	CC(C)(C)C(COc1ccc(C(F)(F)F)cc1)OC(=O)n1ccnc1 (configuration not stated)
4.19	CC(C)(C)C(COc1ccc(Cl)cc1)OC(=O)n1ccnc1 (configuration not stated)
4.08	CC(C)Oc1ccc(OCC(OC(=O)n2ccnc2)C(C)(C)C)cc1 (configuration not stated)
3.15	CC(C)(C)C(COc1ccc(C#N)cc1)OC(=O)n1ccnc1 (configuration not stated)
4.37	CC(C)(C)C(COc1ccc(Br)cc1)OC(=O)n1ccnc1 (configuration not stated)
4.1	CCc1ccc(OCC(OC(=O)n2ccnc2)C(C)(C)C)cc1 (configuration not stated)
4.1	CCCOc1ccc(OCC(OC(=O)n2ccnc2)C(C)(C)C)cc1 (configuration not stated)
4.73	CCCc1ccc(OCC(OC(=O)n2ccnc2)C(C)(C)C)cc1 (configuration not stated)
4.3	CC(C)(C)C(COc1ccc(I)cc1)OC(=O)n1ccnc1 (configuration not stated)
2.59	CC(C)(C)C(COc1ccc(S(C)(=O)=O)cc1)OC(=O)n1ccnc1 (configuration not stated)
3.68	CC(C)(C)C(COc1ccc(F)cc1)OC(=O)n1ccnc1 (configuration not stated)
4.03	CSc1ccc(OCC(OC(=O)n2ccnc2)C(C)(C)C)cc1 (configuration not stated)
3.86	CCOc1ccc(OCC(OC(=O)n2ccnc2)C(C)(C)C)cc1 (configuration not stated)
4.37	CC(C)(C)C(COc1ccc(F)cc1)OC(=S)n1ccnc1 (configuration not stated)
